Like-named read-outs stand apart in the source and are kept apart here.

The nature of data set [1]: pKa by spectrophotometric titration in aqueous Triton X-100. It counts as physicochemical. To be noted: for pKa: Table I; for pK1: first ionization, sulfonamide in conjugation with naphthalene; for pK2: second sulfonamide (in conjugation with the phenyl ring); for pKa (Sol. group): Table II. The protocol: In the following examples, the pKa values were determined by standard procedures using spectrophotometric titration of the compounds of interest. The spectrophotometric technique involves measuring the absorption spectra of the compound of interest in a range of buffer solutions. The absorption data (optical densities, ODobsd) can then be used to determine the corresponding pKa value(s) according to eq 1-3
ODobsd=ODHnA +ODHn-1A + (1)
=b[HnA]εHnA +b[Hn-1A]εHn-1A (2)
=b[total]fHnA εHnA +b[total]fHn-1A
Typically, the experimental constants (b and [total]) are combined with the extinction coefficient (ε) and expressed as the maximum optical density (ODmax) for a given species. Eq 3 then becomes,
=ODmaxHnA fHnA +ODmaxHn-1A fHn-1A (4)
The fraction of a given species (f) is a function of the pH and pKa values.
For example, for a system with one titratable proton eq 5-6,
Thus, the pKa and ODmax values can be determined from a set of XY pair data (pH, ODobsd) using a non linear least squares fit.
This technique relies on a difference in extinction coefficient between the species of interest at a given wavelength. This can be seen by inspection as a change in the absorption spectrum over a given pH range. In addition to this macroscopic data, (the experimental pKa values), the spectrophotometric technique can also provide microscopic information, i.e., information about the relationship between the individual titratable groups and the pKa values. In this manner, a pKa value may be attributed to titration of a particular group in a molecule, e.g., a solubilizing group.
The absorption spectra over a range of pH values and pKa values for the model sulfonamides such as Comp-11 and Comp-8 (defined for the examples hereinafter) as well as the coupler Comp-12 may be plotted. In model sulfonamide Comp-11 (pK 6.65), the optical density change resulting from ionization of the sulfonamide which is in conjugation with the naphthalene group may be pinpointed. Model sulfonamide Comp-8 comprises the entire solubilizing group pK1 7.03, pK2 10.00). […] Finally, in the spectrophotometric titration of the coupler Comp-12, the ionization of both sulfonamides in the solubilizing group as well as ionization of the coupling site pK1 6.85, pK2 9.85, pK3 10.84) can be seen.
In practice, a stock solution of the appropriate compound (1×10^-4 M) and Triton X-100 (1.2%) in water was prepared. The Triton X-100 (CAS Registry No. [9002-93-1], polyoxyethylene(10) isooctylcyclohexyl ether) was obtained from Aldrich Chemical Co. and used as received.
To 1.50 mL of the appropriate phosphate buffer (μ=0.75) were added 1.50 mL of the stock solution. The solution was agitated to ensure adequate mixing, and its absorption spectrum and pH were measured. A non linear least squares method was then used to fit the data to a one, two, or three pKa value model as appropriate.

The conditions of data set [2]: Table II, cited from earlier work.
The mark [3] stands for this setting: sol group, aqueous Triton X-100.

In the case of `CCCCCCCCCCCCCCCCS(=O)(=O)Nc1ccc(Cl)c(NC(=O)C(OC(=O)N(CC)c2ccc(N=Nc3ccc(C(=O)OCCCCCCCCCCCC)cc3)cc2)C(=O)C(C)(C)C)c1` (stereo not drawn) [Comp-1], the pKa – broadly, the pH at which an ionisable group is half protonated – in data set [1] (setting [3]) is listed as 9.5.

As to `CCCCCCCCCCCCCCCCNS(=O)(=O)c1ccc(Cl)c(NC(=O)C(OC(=O)N(CCCC)c2ccc(C=C(C#N)c3nc4ccccc4o3)c(C)c2)C(=O)c2ccc(OC)cc2)c1` (stereo not drawn) [Comp-2], in data set [1] (setting [3]), the pKa was found to be 13.

Turning to `CCCCCCCCCCCCCCCCNS(=O)(=O)c1ccc(Cl)c(NC(=O)C(OC(=O)N(CCCCCCCCCCCC)c2ccc(C=C(C#N)c3nc4ccccc4o3)c(C)c2)C(=O)c2ccc(OC)cc2)c1` (stereo not drawn) [Comp-3], in data set [1] (setting [3]), the pKa turned out to be 13.

In turn, `CCCN(C(=O)OC(C(=O)Nc1ccccc1OC)C(=O)c1cccc(NS(=O)(=O)c2ccc(C)cc2)c1)c1ccc(C=C(C#N)c2nc3c(C)cc(C)cc3s2)c(C)c1` (stereo not drawn) [Comp-4] came in with a pKa in data set [1] (inferred from Comp-5 and Comp-6) of 8.8.

The compound `CCCCCCCN(C(=O)OC(C(=O)Nc1ccccc1OC)C(=O)c1cccc(NS(=O)(=O)c2ccc(C)cc2)c1)c1ccc(C=C(C#N)c2nc3ccc(C)cc3o2)c(C)c1` (stereo not drawn) [Comp-5] had a pKa in data set [1] (setting [3]) of 8.8.

As for `CCCCN(C(=O)OC(C(=O)Nc1ccccc1OC)C(=O)c1cccc(NS(=O)(=O)c2ccc(C)cc2)c1)c1ccc(C=C(C#N)c2nc3cc(C(C)(C)CC(C)(C)C)ccc3o2)c(C)c1` (stereo not drawn) [Comp-6], the pKa in data set [1] (setting [3]) is recorded as 8.9. The pKa values of the last two compounds are within 0.2 log units of each other.

Turning to `CS(=O)(=O)c1ccc(O)cc1` [Comp-7], the “pKa (Sol. group)” value in data set [2] (in water (Bordwell and Cooper)) is listed as 7.8.

In data set [1], `CS(=O)(=O)Nc1ccc(S(=O)(=O)Nc2ccc(Cl)cc2)c2ccccc12` [Comp-8] yielded a pK1 of 7.03 and a pK2 of 10.00.

Regarding `CC(=O)c1cccc(NS(=O)(=O)c2ccc(C)cc2)c1` [Comp-9], in data set [1] (aqueous Triton X-100), the “pKa (Sol. group)” value was 8.7.

As to `COc1ccccc1NC(=O)CC(=O)c1cccc(NS(=O)(=O)c2ccc(C)cc2)c1` [Comp-10], the “pKa at the coupling site” value in data set [1] (Example 2) stood at 10.3. In data set [1] (aqueous Triton X-100), the “pKa (Sol. group)” value is 8.8.

`CN(C)S(=O)(=O)c1ccc(NS(C)(=O)=O)c2ccccc12` [Comp-11]: in data set [1] (aqueous Triton X-100), the “pKa (Sol. group)” value is given as 6.6. The pK in data set [1] (sulfonamide in conjugation with the naphthalene group) is 6.65.

With `CC(C)(C)C(=O)CC(=O)Nc1cc(NS(=O)(=O)c2ccc(NS(C)(=O)=O)c3ccccc23)ccc1Cl` [Comp-12], the “pKa (Sol. group)” value in data set [1] (aqueous Triton X-100) turned out to be 6.8. Besides, in data set [1], the pK1 was 6.85 and the pK2 is on record as 9.85. Moreover, the pK3 in data set [1] (third ionization) is given as 10.84.

For `CCCCCCCCCCCCCCCCS(=O)(=O)Nc1ccc(Cl)c(NC(=O)CC(=O)C(C)(C)C)c1` [Comp-16], in data set [1] (aqueous Triton X-100), the “pKa (Sol. group)” value is given as 9.4.

As to `CCCCCCCCCCCCCCCCS(=O)(=O)Nc1ccc(Cl)c(NC(C)=O)c1` [Comp-17], the “pKa (Sol. group)” value in data set [1] (aqueous Triton X-100) came to 9.5.

For the compound `CNS(=O)(=O)c1ccccc1` [Comp-18], the “pKa (Sol. group)” value in data set [2] (in water (King)) is 11.43.

As to `CCCCCCCCCCCCCCCCNS(=O)(=O)c1ccccc1` [Comp-19], in data set [1] (aqueous Triton X-100), the “pKa (Sol. group)” value is reported as 13.0.

With `CC(=O)Nc1cc(NS(=O)(=O)c2ccc(O)cc2)ccc1Cl` [Comp-20], the “pKa (Sol. group)” value in data set [1] (aqueous Triton X-100) is on record as 8.1.

`Cc1cc(N(C(=O)OC(C(=O)Nc2cc(NS(=O)(=O)c3ccc(O)cc3)ccc2Cl)C(=O)C(C)(C)C)C2CCCC2)ccc1C=C(C#N)c1nc2cc(C(C)(C)CC(C)(C)C)ccc2o1` (stereo not drawn) [Comp-21] came in with a pKa in data set [1] (setting [3]) of 8.8.

In turn, `Cc1cc(N(C(=O)OC(C(=O)Nc2cc(NS(=O)(=O)c3ccc(O)c(NS(C)(=O)=O)c3)ccc2Cl)C(=O)C(C)(C)C)C2CCCC2)ccc1C=C(C#N)c1nc2cc(C(C)(C)CC(C)(C)C)ccc2o1` (stereo not drawn) [Inv-1] came in with a pKa in data set [1] (setting [3]) of 7.2.

`COc1ccc(C(=O)C(OC(=O)N(c2ccc(C=C(C#N)c3nc4cc(C(C)(C)CC(C)(C)C)ccc4o3)c(C)c2)C2CCCC2)C(=O)Nc2cc(NS(=O)(=O)c3ccc(O)cc3)ccc2Cl)cc1` (stereo not drawn) [Inv-3] gave a pKa in data set [1] (setting [3]) of 8.7.

`CCN(C(=O)OC(C(=O)Nc1cc(NS(=O)(=O)c2c(NS(C)(=O)=O)ccc3ccccc23)ccc1Cl)C(=O)c1ccc(OC)cc1)c1ccc(C=C(C#N)c2nc3cc(C(C)(C)CC(C)(C)C)ccc3o2)c(C)c1` (stereo not drawn) [Inv-4]: the pKa in data set [1] (setting [3]) is reported as 6.5.

In the case of `CCN(C(=O)OC(C(=O)Nc1cc(NS(=O)(=O)c2ccc(NS(C)(=O)=O)c3ccccc23)ccc1Cl)C(=O)c1ccc(OC)cc1)c1ccc(C=C(C#N)c2nc3cc(C(C)(C)CC(C)(C)C)ccc3o2)c(C)c1` (stereo not drawn) [Inv-5], the pKa in data set [1] (setting [3]) is recorded as 6.7.

As to `Cc1cc(N(C(=O)OC(C(=O)Nc2cc(NS(=O)(=O)c3ccc(NS(C)(=O)=O)cc3O)ccc2Cl)C(=O)C(C)(C)C)C2CCCC2)ccc1C=C(C#N)c1nc2cc(C(C)(C)CC(C)(C)C)ccc2o1` (stereo not drawn) [Inv-6], the pKa in data set [1] (setting [3]) was 7.4.

The compound `CCN(C(=O)OC(C(=O)Nc1cc(NS(=O)(=O)c2ccc(NS(C)(=O)=O)cc2)ccc1Cl)C(=O)c1ccc(OC)cc1)c1ccc(C=C(C#N)c2nc3cc(C(C)(C)CC(C)(C)C)ccc3o2)c(C)c1` (stereo not drawn) [Inv-7] yielded a pKa in data set [1] (setting [3]) of 7.9.

`CCN(C(=O)OC(C(=O)Nc1cc(NS(=O)(=O)c2ccccc2NS(C)(=O)=O)ccc1Cl)C(=O)c1ccc(OC)cc1)c1ccc(C=C(C#N)c2nc3cc(C(C)(C)CC(C)(C)C)ccc3o2)c(C)c1` (stereo not drawn) [Inv-8]: the pKa in data set [1] (setting [3]) is listed as 6.1.

In data set [1] (setting [3]), `Cc1cc(N(C(=O)OC(C(=O)Nc2cc(NS(=O)(=O)c3cccc(NS(C)(=O)=O)c3)ccc2Cl)C(=O)C(C)(C)C)C2CCCC2)ccc1C=C(C#N)c1nc2cc(C(C)(C)CC(C)(C)C)ccc2o1` (stereo not drawn) [Inv-9] returned a pKa of 7.9.

In the case of `COc1ccc(C(=O)C(OC(=O)N(c2ccc(C=C(C#N)c3nc4cc(C(C)(C)CC(C)(C)C)ccc4o3)c(C)c2)C2CCCC2)C(=O)Nc2cc(NS(=O)(=O)c3ccccc3NS(C)(=O)=O)ccc2Cl)cc1` (stereo not drawn) [Inv-10], in data set [1] (setting [3]), the pKa amounted to 6.1.
